These results are taken from patent publication US11986482B2, “Method of promoting antitumor or anti-cancer immunity” (City University of Hong Kong, priority 2021, dated 2024).

For data set [1], the system named is 4T1 cells. Nature of the data set: Cell viability of 4T1 cells, MTT assay. The conditions noted are these: ≤1 μM, 24 h or 48 h. The format is cell-based. On the procedure: The inventors also test the cytotoxicity of 6J1 in several cancer cell lines, HeLa, A549 and MDA-MB-231 cell lines. Cells are grown in 96-well plates in triplicate and treated with or without 6J1 at the concentrations of 0, 0.01, 0.1, 1, 10 and 100 μM indicated for 24 h or 48 h. They are then stained with propidium iodide (PI) or Hochest 33342 to measure the cell death ratio and cell number, respectively. […] Inventors also test the cytotoxicity of 6J1 in 4T1 cells. 4T1 cells are plated in 96-well plates in triplicate and treated with or without 6J1 at the concentrations of 0, 0.01, 0.1, 1, 5, 10, 20, 40, 80 and 100 μM indicated for 24 h or 48 h. The cell viability was then quantified via the MTT assay.

For data set [2], the system named is LL/2 cells. Description: LL/2 mouse lung cancer model in C57BL mice. To be noted: 30 mg/kg, daily, oral gavage, 4 weeks. The format is in vivo. As to the method:
C57BL mice (n=5) are injected subcutaneously with LL/2 cells. After tumors reach around 5 mm in size, the mice are treated with either buffer (PBS) or 6J1 (30 mg/kg, daily, oral gavage) for 4 weeks. After 4 weeks, primary tumors and lungs are collected for analysis (FIGS. 16a and 16b). Tumor volumes are measured daily (p<0.001) in FIG. 16c.

In data set [3] the test system is 4T1 primary tumors. Description: Chemokine levels in microenvironment of 4T1 primary tumors. The format is in vivo, mouse. To be noted: 4T1 tumors isolated at end of experiment. As to the method: Inventors further measure the chemokines or cytokines in these primary tumor tissues. The tumors are isolated at the end of experiments, and the chemokine levels in the microenvironment of 4T1 primary tumors treated with the vehicle or 6J1 are determined by Flow cytometry-based quantification. In FIGS. 9a-9c, data are reported in μg/ml, standardized to the excised tumor weight (in grams); each dot represents one mouse.

For data set [4], the system named is PD-L1. Nature of the data set: Plasma membrane PD-L1 level in HeLa cells (flow cytometry, confocal imaging). The format is cell-based. To be noted: 1 μM, 24 h. On the procedure:
Next, inventors assess if 6J1 can compromise PD-L1 trafficking. PDL1-GFP stable expressing HeLa cells are treated with or without 6J1 (1 μM) for 24 h. Cells are fixed and stained with Rab5 or EEA1. Their quantifications of the colocalization are shown in FIGS. 4d and 4e, respectively. […] Inventors thus further quantify cell membrane PD-L1 levels in live cells treated with or without 6J1 by flow cytometry or confocal imaging.
(§1) Moreover, ATG5- or LC3-knockout HeLa cells are treated with or without 6J1 (1 μM) for 24 h. The supernatant is collected, and the concentration of the extracellular vesicle is determined using a Nanosight nanoparticle analyzer. The exosomes are also collected and subjected to western blot analysis of the EVs marker and PD-L1 in FIG. 7a. The live cells are also labeled with an anti-PD-L1 antibody in FIG. 7b and subjected to flow cytometry analysis in FIG. 7c. […] In addition, inventors assess whether other autophagy-related genes, e.g., ATG4B, ATG7, Beclin1, and Vps34 are involved in 6J1-mediated exosomal PD-L1 secretion. ATG4B-, ATG7-, Beclin1-, or VPS34-knockout HeLa cells are treated with or without 6J1 (1 μM) for 24 h. The supernatant is collected, and the concentration of extracellular vesicle is determined using a Nanosight nanoparticle analyzer. The exosomes are also collected and subjected to western blot analysis of the EVs marker and PD-L1 in FIG. 7d. The live cells are also labeled with an anti-PD-L1 antibody and subjected to flow cytometry analysis in FIG. 7e.

The subject of data set [5] is HeLa cells. Description: Extracellular vesicle concentration, Nanosight nanoparticle analyzer, HeLa cells. The format is cell-based. To be noted: 1 μM, 24 h. As to the method:
It has previously been shown that interfering with endosomal trafficking promotes exosome secretion. Moreover, PD-L1 has been reported to be enriched in exosomes and secreted outside the cell. Thus, inventors speculate that 6J1 may induce the secretion of the PD-L1 trapped in the endosomal compartments via exosomes. To determine whether 6J1 may induce the secretion of PD-L1 via exosomes, HeLa cells are treated with or without 6J1 (1 μM) for 24 h. The supernatant is collected. Inventors purify the exosomes from the supernatant of HeLa cells by sequential centrifugation. The concentration of extracellular vesicle is determined using a Nanosight nanoparticle analyzer. And HeLa cells are treated with or without 6J1 (1 μM) for 48 h. The cell and supernatant are collected for Western Blot analysis. […] Moreover, the activity of Rab27a in HeLa cells treated with or without 6J1 (1 μM) is examined with a GST-SHD pulldown assay.
as §1

The subject of data set [6] is 4T1 cells. Description: 4T1-shNC or 4T1-shRab27A tumors in Balb/c nude mice. The format is in vivo, mouse. The conditions noted are these: 30 mg/kg, daily, oral gavage. As to the method: Inventors also implant control or Rab27a-knockout 4T1 cells into the fat pads of female Balb/c nude mice. The mice are randomly divided (n=4 per group) and treated with either buffer or 6J1 (30 mg/kg, daily) via oral gavage.

In data set [7] the test system is LC3 and p62. Nature of the data set: Autophagy readouts: LC3/p62 western blot and GFP-RFP-LC3 puncta in HeLa cells. The class given is cell-based. The conditions noted are these: 6 h. On the procedure:
HeLa cells are treated with or without 6J1. After 6 h, cells are collected for western blot analysis of LC3 and p62. […] In addition, ATG5-knockout HeLa cells are transfected with PD-L1-GFP and LC3-RFP, and then treated with or without 6J1 (1 μM) for 24 h. Cells are fixed and imaged. […] Furthermore, LC3B-knockout HeLa cells are transfected with PD-L1-GFP, and then treated with or without 6J1 (1 μM) for 24 h. Cells are fixed and stained with antibodies against Rab5 (FIG. 6d) or Rab27a (FIG. 6e).

[8] abbreviates: ATG4B-, ATG7-, Beclin1- or VPS34-knockout HeLa cells.
Setting [9] is: ATG5- or LC3B-knockout HeLa cells.
[10] abbreviates: GFP-RFP-LC3-expressing HeLa cells, 1 μM.

Entries after “also recorded” stand apart in the source; their conditions may differ.

For the molecule `OCCOCCN(c1ccccc1)c1nc(N/N=C/c2cccc(I)c2)nc(N2CCOCC2)n1` [Compound 6J1], the “proliferation of 4T1 cells” value in data set [1] was “little effect”. The “tumor growth of mouse lung cancer” value in data set [2] is “significantly inhibits the tumor growth of mouse lung cancer”. Further, in data set [3], the “secretion of chemokines CCL2, CCL3, CCL4, CXCL9 in tumor microenvironment” value is “significantly increases the secretion of some chemokines” and the “secretion of chemokines CCL5, CCL11, CCL17, CCL22, CXCL1, CXCL5, CXCL10, CXCL13 in tumor microenvironment” value is “little or only subtle effects on others; also recorded: little or only subtly effects on others”. Moreover, the “6J1-mediated decrease in the level of PD-L1 at the cell surface” value in data set [4] (setting [8]) is given as “does not affect”. For the same molecule, the “6J1-induced decrease in the level of PD-L1 at the cell surface” value in data set [4] (setting [9]) is reported as “Neither ATG5 nor LC3B knockout impairs”. In data set [4] (HeLa cells), the “expression of PD-L1 on the surface of cells” value is recorded as “significantly reduces the expression of PD-L1 on the surface of cells”. The “6J1-induced EVs secretion” value in data set [5] (setting [8]) is listed as “fails to abolish”. The “6J1-induced EVs secretion” value in data set [5] (setting [9]) is listed as “Neither ATG5 nor LC3B knockout impairs”. The “exosome secretion (extracellular vesicle concentration)” value in data set [5] (HeLa cells) was “dramatically induces exosome secretion”. Also, the “anti-cancer effect of 6J1 or 6J1 with Rab27a knockout in immunocompromised mice” value in data set [6] is reported as “dramatically abolished”. Further, in data set [7] (setting [10]), the “formation of yellow LC3B puncta” value is “significantly induces the formation of yellow LC3B puncta” and the “red-only LC3B puncta” value is on record as “no red-only LC3B puncta are observed”. The “level of LC3B-II and P62” value in data set [7] (HeLa cells, western blot) is “markedly induced an increase in the level of LC3B-II and P62”.
